Assay results as given in patent US20110183942A1, “Methods and Compositions for Treating Alzheimer's Disease” (UNIVERSITY OF MEDICINE AND DENTISTRY OF NEW JERSEY, priority 2008, published 2011).
Entries after “also recorded” stand apart in the source; their conditions may differ.

What was measured:
[1] = tested on: Arc protein in DIV14 forebrain neurons; experiment: Western blot of Arc protein in cultured forebrain neurons; format: cell-based, mouse
Protocol: For biochemistry experiments, 0.4×10^6 neurons were added to each well of a 6-well plate (Coming) coated with poly-L-lysine. Growth medium consisted of NeuroBasal (Invitrogen) supplemented with 1% fetal bovine serum (Hyclone), 2% B27, 1% Glutamax (Invitrogen), 100 U/mL penicillin, and 100 U/mL streptomycin (Invitrogen). Neurons were fed twice per week with glia conditioned growth medium.
(§1) Transfected HEK293T cells or cultured neurons were treated with various drugs and then harvested in IP buffer supplemented with 1% Triton X-100 buffer and Complete™ EDTA-Free protease inhibitors. Soluble fractions were diluted with 4× SDS sample buffer.
(§2) The membrane was blocked with TBST (50 mM Tris, pH 7.5, with 150 mM NaCl, and 0.1% Tween-20) containing 5% non-fat milk for one hour at room temperature, followed by incubation with primary antibody in TBST buffer overnight at 4° C. After three washes with TBST buffer, membranes were incubated with HRP-conjugated anti-rabbit, or anti-mouse antibody in TBST for another hour. After three washes with TBST buffer, the membrane was treated with SuperSignal ECL substrate (Pierce) according to the manufacturer's protocol.
To reduce the background signal in the co-IP assay, HRP-conjugated HA or HPR conjugated myc antibody (Santa Cruz) was used when overexpressed proteins were tagged with HA or myc. […] Image J software (NIH) was used for quantification.

[2] = tested on: global protein synthesis in cultured neurons; experiment: Metabolic labeling, incorporation of 35S methionine and cysteine into TCA precipitant; format: cell-based
Protocol: To measure the incorporation of ^35S methionine and cysteine into new peptide, 30 μl protein labeling mix (Perkin Elmer) was added into 1.5 ml of regular culture medium (final 220 μCi/ml) for the time indicated in the figures. After washout once with ice-cold PBS, cells were lysed with 700 μl of RIPA buffer. After quantification of total amount of protein, equal amount of lysate (˜200 μl) was precipitated with 10% TCA.

[3] = tested on: Arc mRNA in cultured neurons; experiment: Real-time RT-PCR of Arc mRNA; format: cell-based; settings: BDNF 10 ng/ml at 40 min; forskolin 50 μM at 20 min; DHPG at 20 and 40 min after stimulation
Protocol: RNA samples from neuronal cultures were prepared using the PARIS kit (Ambion) according to the manufacturer's protocol. Following RNA extraction, samples were treated with DNase to remove contaminating DNA prior to cDNA synthesis. Total RNA was reverse transcribed using the SuperScript II First Strand Synthesis System for RT-PCR (Invitrogen) according to the manufacturer's protocol. A negative control without reverse transcriptase was included.
Primer specificity was verified by melt curve analysis. PCR amplification of cDNA was performed using the BioRad iCycler Real-Time Detection System (BioRad Laboratories). cDNA (1 μl) was added to 24 μl of 1× reaction master mix (3 mM MgCl2, KCl, Tris-HCl, iTaq DNA polymerase, 25 units/ml SYBR Green 1, 0.2 mM each dNTPs, 10 nM fluorescein and 500 nM each gene specific primers). […]
GAPDH was used to normalize data. The threshold for detection of PCR product above background was set at 10× the standard deviation of the mean background fluorescence for all reactions. Background fluorescence was determined from cycles 1-5 prior to the exponential amplification of product and subtracted from the raw fluorescence of each reaction/cycle. […] Threshold cycle (CT; number of cycles to reach threshold of detection) was determined for each reaction.
Relative gene expression was determined using the 2^−ΔΔCT method (Livak, et al., Methods 25, 402-408 (2001)). […]

[4] = tested on: phospho-eEF2; experiment: Phospho-eEF2 in hippocampal slices (immunohistochemistry, Western blot); format: cell-based, mouse; settings: WT hippocampal slices, DHPG 50 μM, 5 min
Protocol: as §1
as §2, with “Samples were separated electrophoretically using NuPAGE 4-12% Bis-Tris gels (Invitrogen) and transferred to an Immobilon-P PVDF membrane (Millipore). The” for “The”
Immunohistochemistry of phospho-eEF2 in WT and eEF2K mice was performed as described (Ramirez-Amaya et al., J. Neurosci. 25, 1761-1768 (2005)) with slight modifications. […] The signals were visualized using the cyanine 3 (CY3) TSA fluorescence system (PerkinElmer Life Sciences), and the nuclei were stained with DAPI (Molecular Probes). No staining was detected in the absence of the primary or secondary antibodies. No phospho-eEF2 signal was detected in eEF2K KO sections.

With NC(C(=O)O)c1cc(O)cc(O)c1 (racemic) [DHPG, (R,S)-3,5-DHPG] the “rapid increase of Arc protein following DHPG stimulation” value ([1]; Fmr1 KO neurons) was “absent”, the “level of Arc protein after DHPG” value ([1]; WT neurons, DHPG 50 μM, 5 min) was “significantly increased the level of Arc; also recorded: induced” and the “increase in Arc protein 5 min after DHPG” value ([1]; eEF2K KO neurons) was “absent”. The “global protein synthesis compared to untreated control” value ([2]; pretreatment of DHPG (30 min before harvest for 5 min)) was 1.080±0.036, the “global protein synthesis compared to untreated control” value ([2]; simultaneous treatment of DHPG for 5 min) was 0.926±0.017 and the “level of Arc mRNA” value [3] was “slightly increased the level of Arc mRNA”. For the same molecule, the phospho-eEF2 level [4] was “dramatically increased”.
